Tested on: MDA-MB-231 tumor
Test: Enumeration and characterization of FITC CAR T cells in blood after rescue (Example 33)
Assay type: in vivo, NSG mice
Method: Plasma was removed from predetermined volumes of whole EDTA treated blood with a 10-minute 4° C. spin at 3000 g and the resulting cell pellets were incubated with a 10-fold volume of room temperature 1×RBC lysis solution [prepared from 10× stock; Biolegend, catalog #420301] for 5 minutes, centrifuged at 400 g for 5 min, and the cell pellet was washed in a 10-fold volume of ice cold phosphate buffered saline pH=7.4 and filtered with a 40 μm nylon filter and then pelleted again. The leukocyte pellets were then resuspended in flow cytometry staining solution [1% bovine serum albumin, 50 mg/mL human IgG (Equitech Bio, cat #SLH56-0001), 0.9% sodium azide in a phosphate buffered saline, pH=7.4] supplemented with both anti-mouse FcγIII/II receptor (CD16/CD32) block [clone 2.4G2; BD Bioscience, catalog #553142 at 1:100 (v/v) dilution] and anti-human Fc Block [BD Biosciences, catalog #564220 at 1:50 (v/v) dilution]. Leukocyte surface marker staining was performed with the addition of the following fluorochrome conjugated monoclonal antibodies added to each sample for 20 minutes on ice in the dark: anti-human CD45-APCeF780 [clone HI30, eBioscience #47-0459-42 at 1:20 (v/v) dilution], anti-human CD137-BV650 [clone 4B4-1, BD Bioscience #564092 at 1:20 (v/v) dilution], anti-human CD8α-PECy7 [clone RPA-T8, BD Bioscience, catalog #557746 at 1:20 (v/v) dilution], anti-human CD4-Percpe710 [clone SK3, eBioscience catalog #46-0047-42 at 1:20 (v/v) dilution]. After leukocyte staining, cells were washed with PBS and resuspended in cold PBS containing 53,000 CountBright™ beads [Invitrogen catalog #C36950] and transferred to flow cytometry collection tubes. Flow cytometry data was collected on the Gallios flow cytometer (Beckman Coulter, Brea, Calif.), where a minimum of 15,000 CountBright™ bead events were collected in an attempt to collect enough leukocyte events for an accurate count of infused CART cells in each mouse blood sample. Determination of the concentration of CAR T cells in each blood sample was calculated according to Invitrogen's instructions. Briefly, CAR T cells were identified as human CD45+ GFP+ events and were easily distinguished and counted using the Kaluza™ flow cytometry software. CountBright™ beads were uniformly labeled with a fluorochrome not utilized in the antibody panel used to identify the CAR T cells and were easily distinguished from the leukocytes and bead events were counted. Because 53,000 CountBright™ beads were added to each sample tube, we calculated the ratio of 53,000 total beads to bead events collected per sample and set the bead ratio equivalent to the unknown number of CAR T cells in each sample divided by the known number of CAR T cell events collected. Solving for the unknown gave us the number of CAR T cells isolated from each blood sample of known volumes. The number of CAR T cells in the circulation of each infused mouse was then represented on the graphs as the total number of CART cells per 50 μL of whole blood analyzed. Statistical significance was determined by utilizing an unpaired, two-tailed, students t-test with significance set at p<0.05 for comparisons between each of the three groups of mice.
The experimental timeline is represented in FIG. 53A. On day 0, GFP+FITC-CAR T cells [clone 4M5.3] were removed from cryopreservation, thawed and then infused intravenously into MDA-MB-231 tumor bearing NSG mice at 10 million per mouse [tumors ˜250 mm^3]. […]

Structure (SMILES)	CAR T cells in circulation (60 μmol/kg, 27 hours after rescue)	earliest increase of circulating CAR T cells (0.06-6 μmol/kg) [h]	CAR T cell extravasation into the blood (24 hours post rescue, 0.06-6 μmol/kg)	4-1BB (CD137) on circulating CAR T cells (CAR T + EC17 + sodium fluorescein 60 μmol/kg)	CAR T cells in circulation (one dose EC17 500 nmol/kg)
O=C([O-])c1ccccc1-c1c2ccc(=O)cc-2oc2cc([O-])ccc12.[Na+].[Na+] [sodium fluorescein]	CAR T cells reappear in the circulation	3	increased in a sodium fluorescein dose-dependent manner	express significant amounts of 4-1BB	–
Nc1nc2ncc(CNc3ccc(C(=O)NC(CCC(=O)NCCNC(=S)Nc4ccc(-c5c6ccc(=O)cc-6oc6cc(O)ccc56)c(C(=O)O)c4)C(=O)O)cc3)nc2c(=O)[nH]1 (centres unmarked) [EC17, FITC-Folate]	–	–	–	–	very few CAR T cells are detected in the circulation

From US11759480B2, “Compositions and methods for CAR T cell therapy” (ENDOCYTE, INC., priority 2017, dated 2023)
